Among the data in patent US9051310B2, “Nicotinamide derivative or salt thereof” (FUJIFILM Corporation, priority 2011, dated 2015) are IC50 values, retold here.

Structures are written as SMILES.

For assay [1], the system named is THP-1 cells (TNFα secretion on human IgG-coated plate). Nature of the assay: TNFα generation assay. The following applies: IFN-γ differentiated THP-1 cells, 7 hours, AlphaLISA, read-out: IC50 of TNFα generation inhibitory activity. The format is cell-based. The method, boiled down:
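THP-1 cells were differentiated with 10 ng/ml IFN-γ for 2 days, then preincubated with compound for 30 min at room temperature. They were then plated at 5×10^4 cells/well on plates coated with human IgG (10 μg/ml). TNFα secreted over 7 h of culture was quantified by AlphaLISA.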
On the technique in general: Bead proximity is the source of the signal in Alpha formats.

Assay [2] deals with THP-1 cells (phagocytosis of opsonized Escherichia coli). Kind of assay: Antibody-dependent phagocytosis assay. Format: cell-based. As to conditions: Homo sapiens; IFNγ differentiated THP-1 cells, opsonized pHrodo Escherichia coli, 3 hours; read-out: IC50 upon phagocytosis inhibition. The procedure: THP-1 cells (2×10^5 cells/ml), which were human monocytoid cells, were cultured in the presence of 10 ng/ml IFNγ for 2 days, and they were induced to differentiate into macrophage-like cells. The differentiation-induced THP-1 cells were recovered, and the cells (5×10^4 cells/well) were then allowed to react with a predetermined concentration of test compound at room temperature for 30 minutes. Thereafter, Escherichia coli (Life Technologies) labeled with a pH-sensitive dye (pHrodo) was subjected to opsonization using an anti-Escherichia coli antibody (Life Technologies). Then, the resultant was added to the THP-1 cells obtained above, followed by incubation at 37° C. for 3 hours. Opsonized Escherichia coli and cell-permeable fluorescent dye (Calcein AM) were simultaneously added thereto, followed by quantitative determination of phagocytosis of opsonized Escherichia coli in viable cells using an IN Cell Analyzer.

The target of assay [3] is T1, glutathione S-transferase (GST)-linked full-length human Syk protein (Homo sapiens, UniProt P43405).
T1 construct: glutathione S-transferase (GST)-linked full-length human Syk protein; purchased Carna Biosciences; host or cells: Baculovirus expression system
Nature of the assay: Syk enzyme assay. As to conditions: 0.83 nM Syk, time-resolved fluorescence; read-out: IC50 of Syk-inhibitory activity. Format: biochemical. The method, boiled down: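 Phosphotyrosine on a biotin-peptide substrate (0.5 μM) was read by time-resolved fluorescence at 615 and 665 nm with Eu-anti-pTyr antibody and APC-streptavidin after 1 h EDTA stop.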

Consider `COCCn1nc(OC)c2cc(Nc3nc(N[C@H](CC(C)C)[C@H](C)N)c(F)cc3C(N)=O)ccc21` [Example 2-127, 6-(((2S,3R)-2-amino-5-methylhexan-3-yl)amino)-5-fluoro-2-((3-methoxy-1-(2-methoxyethyl)-1H-indazol-5-yl)amino)nicotinamide], for which the IC50 in assay [1] was 130 to 200 nM; in assay [2], less than 1000 nM; in assay [3] it was less than 10 nM.
On the same counts, the results for `COc1ncc(Nc2nc(N[C@H](C3CCC3)[C@H](C)N)c(F)cc2C(N)=O)cc1-n1nccn1` [Example 2-114, 6-(((1R,2S)-2-amino-1-cyclobutylpropyl)amino)-5-fluoro-2-((6-methoxy-5-(2H-1,2,3-triazol-2-yl)pyridin-3-yl)amino)nicotinamide] are 130 to 200 nM, 1000 to 3000 nM and less than 10 nM.
On the same counts, the results for `Cc1ncc(Nc2nc(N[C@H](c3ccccc3F)[C@H](C)N)c(F)cc2C(N)=O)cc1-n1nccn1` [Example 2-409, 6-(((1R,2S)-2-amino-1-(2-fluorophenyl)propyl)amino)-5-fluoro-2-((6-methyl-5-(2H-1,2,3-triazol-2-yl)pyridin-3-yl)amino)nicotinamide] are 130 to 200 nM, 1000 to 3000 nM and less than 10 nM.
On the same counts, the results for `CC(C)C[C@@H](Nc1nc(Nc2ccnc(N3CCOCC3)c2F)c(C(N)=O)cc1F)[C@H](C)N` [Example 2-235, 6-(((2S,3R)-2-amino-5-methylhexan-3-yl)amino)-5-fluoro-2-((3-fluoro-2-morpholinopyridin-4-yl)amino)nicotinamide] are 65 to 130 nM, less than 1000 nM and less than 10 nM.
As to `C[C@H](N)[C@@H](CC1CC1)Nc1nc(Nc2cccc3c2cnn3CC(F)F)c(C(N)=O)cc1F` [Example 2-21, 6-(((2R,3S)-3-amino-1-cyclopropylbutan-2-yl)amino)-2-((1-(2,2-difluoroethyl)-1H-indazol-4-yl)amino)-5-fluoronicotinamide], the IC50 in assay [1] is 130 to 200 nM; in assay [2], less than 1000 nM; in assay [3], less than 10 nM.
`CCC[C@@H](Nc1nc(Nc2cncc3c2cnn3CC)c(C(N)=O)cc1F)[C@H](C)N` [Example 2-319, 6-(((2S,3R)-2-aminohexan-3-yl)amino)-2-((1-ethyl-1H-pyrazolo[3,4-c]pyridin-4-yl)amino)-5-fluoronicotinamide]: the IC50 in assay [1] was 65 to 130 nM; in assay [2], less than 1000 nM; in assay [3] it was less than 10 nM.
On the same counts, the results for `CCC[C@@H](Nc1nc(Nc2ccc3c(c2)c(OC)nn3CCOC)c(C(N)=O)cc1F)[C@H](C)N` [Example 2-126, 6-(((2S,3R)-2-aminohexan-3-yl)amino)-5-fluoro-2-((3-methoxy-1-(2-methoxyethyl)-1H-indazol-5-yl)amino)nicotinamide] are 65 to 130 nM, less than 1000 nM and less than 10 nM.
Regarding `COc1ncc(Nc2nc(N[C@H](C3CC3)[C@H](C)N)c(F)cc2C(N)=O)cc1-n1ccnn1` [Example 2-162, 6-(((1R,2S)-2-amino-1-cyclopropylpropyl)amino)-5-fluoro-2-((6-methoxy-5-(1H-1,2,3-triazol-1-yl)pyridin-3-yl)amino)nicotinamide], the IC50 in assay [1] fell in the range of 130 to 200 nM; in assay [2], 1000 to 3000 nM; in assay [3], 10 to 50 nM.
Turning to `Cc1cccc(Nc2nc(N[C@H](C3CC3)[C@H](C)N)c(F)cc2C(N)=O)c1` [Example 2-44, 6-(((1R,2S)-2-amino-1-cyclopropylpropyl)amino)-5-fluoro-2-(m-tolylamino)nicotinamide], the IC50 is 65 to 130 nM in assay [1], less than 1000 nM in assay [2] and less than 10 nM in assay [3].
The corresponding values for `NC(=O)c1cc(F)c(N[C@@H]2CCOC[C@@H]2N)nc1Nc1cccc2c1cnn2CC(F)F` [Example 2-332, 6-(((3R,4R)-3-aminotetrahydro-2H-pyran-4-yl)amino)-2-((1-(2,2-difluoroethyl)-1H-indazol-4-yl)amino)-5-fluoronicotinamide] are 65 to 130 nM, less than 1000 nM and less than 10 nM.
